Experiments:
[1] = tested on: CHO cells modified to produce a monoclonal antibody; test: Effect of addition of L-cysteine derivatives to basal medium on proliferation of CHO cells; assay type: cell-based, Chinese hamster; details: for use as an alternative for L-cysteine in the basal medium: 1.3 mM in basal medium; for proliferation of cells (viable cell count): 1.3 mM in basal medium otherwise without L-cysteine, day 7 of culture, FIG. 1
Protocol: In this Example, an effect of addition of L-cysteine derivatives to a basal medium on proliferation of CHO cells was evaluated. As the L-cysteine derivatives, (2RS,4R)-2-methyl-2,4-thiazolidinedicarboxylic acid 2-ethyl ester (hereinafter, also referred to as “Compound 1”) and (2RS,4R)-2-methyl-2,4-thiazolidinedicarboxylic acid (hereinafter, also referred to as “Compound 2”) were used. As the CHO cells, CHO cells modified to produce a monoclonal antibody were used.
CELLiST (registered trademark) Basal media (Ajinomoto Co., Ltd.: BASAL3) without L-cysteine was prepared, to obtain a culture medium without addition of L-cysteine. The culture medium without addition of L-cysteine was added with L-cysteine, Compound 1, or Compound 2, to prepare a culture medium containing 1.3 mM L-cysteine, 1.3 mM Compound 1, or 1.3 mM Compound 2. Each culture medium was added with LR3-IGF-1 (SIGMA-ALDRICH: I1271-1MG, final concentration of 50 μg/mL) and L-Glutamine (Thermo Fisher SCIENTIFIC: 25030081, final concentration of 6 mM), to prepare a basal medium.
A 3 mL-aliquot of a CHO cell suspension adjusted to 3×10^5 cells/mL using the prepared basal medium was seeded into a 6 well plate (CORNING: 3471), and cultured for 11 days. The culture was carried out with n=3 for all experimental groups. The culture temperature was 37° C. and the agitation speed was 110 rpm. A cell culture broth was sampled on days 7 and 11 from the start of the culture, and the viable cell count was measured using a viable/dead cells autoanalyzer Vi-CELL™ XR (Beckman Coulter).

[2] = tested on: CHO cells modified to produce a monoclonal antibody; test: Effect of addition of L-cysteine derivatives to feed medium on proliferation of CHO cells and antibody production (1); assay type: cell-based, Chinese hamster; details: for antibody production amount: 14.5, 29 or 58 mM in feed medium, fed on days 4, 7, 9, 11, 14 days culture, FIG. 3
Protocol: In this Example, an effect of addition of L-cysteine derivatives to a feed medium on proliferation of CHO cells and antibody production was evaluated. As the L-cysteine derivatives, Compounds 1 and 2 were used. As the CHO cells, CHO cells modified to produce a monoclonal antibody were used.
CELLiST (registered trademark) Basal media (Ajinomoto Co., Ltd.: BASAL3; containing 1.3 mM L-cysteine) was added with LR3-IGF-1 (SIGMA-ALDRICH: I1271-1MG, final concentration of 50 μg/mL) and L-Glutamine (Thermo Fisher SCIENTIFIC: 25030081, final concentration of 6 mM), to prepare a basal medium.
Feed media (9 kinds in total) each containing 82 g/L Cellvento (registered trademark) Feed-210 (Merck: 1.02488.0005), 70 g/L glucose (Wako Pure Chemical Industries, Ltd.: 043-31163), and L-cysteine, Compound 1, or Compound 2 each at 14.5 mM, 29 mM, or 58 mM were prepared. In addition, a feed medium without addition of L-cysteine, which only contained 82 g/L Cellvento (registered trademark) Feed-210 and 70 g/L glucose, was prepared. Separately, a tyrosine concentrate (L-tyrosine disodium salt dihydrate (Merck: 122666-87-9) 149.64 g/L, pH 11.3) was prepared.
A 30 mL-aliquot of a CHO cell suspension adjusted to 3×10^5 cells/mL using the prepared basal medium was seeded into 125 mL-volume flasks (CORNING: 431143), and cultured for 14 days. The culture was carried out with n=2 for all experimental groups. The culture temperature was 37° C. and the agitation speed was 110 rpm. A 1.8 mL-aliquot of each of the prepared feed media and a 60 μL-aliquot of the tyrosine concentrate were added on days 4, 7, 9, and 11 from the start of the culture. A cell culture broth was sampled on days 4, 7, 9, 11, and 14 from the start of the culture, and the viable cell count was measured using a viable/dead cells autoanalyzer Vi-CELL™ XR (Beckman Coulter), and the antibody production amount was measured using Octet QK (FORTEBIO).

[3] = Stability of L-cysteine derivatives in feed medium (crystal precipitation by visual observation); assay type: physicochemical; details: for crystal precipitation, Days 0 / crystal precipitation, Days 1 / crystal precipitation, Days 7 / crystal precipitation, Days 22 / crystal precipitation, Days 30: stored at 5° C. in the dark; for crystal precipitation, Days 0: day 0; for crystal precipitation, Days 1: day 1; for crystal precipitation, Days 7: day 7; for crystal precipitation, Days 22: day 22; for crystal precipitation, Days 30: day 30
Protocol: In this Example, the stability of L-cysteine derivatives in a feed medium was evaluated. As the L-cysteine derivatives, Compounds 1 and 2 were used.
A feed medium containing 82 g/L Cellvento (registered trademark) Feed-210 (Merck: 1.02488.0005), 70 g/L glucose (Wako Pure Chemical Industries, Ltd.: 043-31163), and 58 mM L-cysteine, 58 mM Compound 1, or 58 mM Compound 2, and a feed medium without addition of L-cysteine, which only contained 82 g/L Cellvento (registered trademark) Feed-210 and 70 g/L glucose were prepared at pH 5.2 to 5.6, which are described in the instruction of Feed-210, and at pH 7.0, which is a neutral pH condition used for usual cultivation, to obtain 8 kinds of feed media in total. All of the feed media were prepared as transparent solutions.
After each of the feed media was stored at 5° C. in the dark, crystal precipitation was confirmed by visual observation. […] In the table, “+” to “++++” indicate that crystal precipitation was observed, and the higher the number of “+”, the greater the degree of precipitation. Under the addition condition, significant precipitation was observed from one week after the start of storage. Under the condition of adding Compound 2, precipitation was observed from 22 days after the start of storage.

[4] = Stability of L-cysteine derivatives in buffer solution (crystal precipitation by visual observation); assay type: physicochemical; details: 58 mM in PBS buffer pH 7.0 to 7.2; for crystal precipitation, Days 0 / crystal precipitation, Days 3 / crystal precipitation, Days 7 / crystal precipitation, Days 14 / crystal precipitation, Days 21 / crystal precipitation, Days 24: stored at 5° C. in the dark; for crystal precipitation, Days 0: day 0; for crystal precipitation, Days 3: day 3; for crystal precipitation, Days 7: day 7; for crystal precipitation, Days 14: day 14; for crystal precipitation, Days 21: day 21; for crystal precipitation, Days 24: day 24
Protocol: In this Example, the stability of L-cysteine derivatives in a buffer solution was evaluated.
In the table, “+” to “++++” indicate that crystal precipitation was observed, and the higher the number of “+”, the greater the degree of precipitation.

[5] = 58 mM in feed medium pH 5.2 to 5.6
[6] = 58 mM in feed medium, 5° C. in the dark

Row | Structure (SMILES) | use as an alternative for L-cysteine in the basal medium [1] | proliferation of cells (viable cell count) [1] | antibody production amount [2] | crystal precipitation, Days 0 [3, 5] | crystal precipitation, Days 1 [3, 5] | crystal precipitation, Days 7 [3, 5] | crystal precipitation, Days 22 [3, 5] | crystal precipitation, Days 30 [3, 5] | crystal precipitation, Days 0 ([3]; 58 mM in feed medium pH 7) | crystal precipitation, Days 1 ([3]; 58 mM in feed medium pH 7) | crystal precipitation, Days 7 ([3]; 58 mM in feed medium pH 7) | crystal precipitation, Days 22 ([3]; 58 mM in feed medium pH 7) | crystal precipitation, Days 30 ([3]; 58 mM in feed medium pH 7) | relative stability compared with L-cysteine ([4]; 5° C. in the dark) | crystal precipitation, Days 0 [4] | crystal precipitation, Days 3 [4] | crystal precipitation, Days 7 [4] | crystal precipitation, Days 14 [4] | crystal precipitation, Days 21 [4] | crystal precipitation, Days 24 [4] | further results
1 | CC1(C(=O)O)N[C@H](C(=O)O)CS1 (mixture of isomers) [Compound 2, (2RS,4R)-2-methyl-2,4-thiazolidinedicarboxylic acid] | able to be used as an alternative for L-cysteine | almost equivalent to that of the experimental group using L-cysteine | almost equivalent to that of the experimental group of L-cysteine | − | − | − | + | +++ | − | − | − | ++ | +++ | more stable than L-cysteine | − | − | − | − | − | − | precipitation observed from (after the start of storage) [3, 6]: 22 days
2 | CCOC(=O)C1(C)N[C@H](C(=O)O)CS1 (mixture of isomers) [Compound 1, (2RS,4R)-2-methyl-2,4-thiazolidinedicarboxylic acid 2-ethyl ester] | unable to substitute the whole of L-cysteine in the basal medium | no proliferation of cells was observed | almost equivalent to that of the experimental group of L-cysteine | − | − | − | − | − | − | − | − | − | − | more stable than L-cysteine | − | − | − | − | − | − | use as an alternative for L-cysteine in the feed medium ([2]; in feed medium, basal medium containing 1.3 mM L-cysteine): able to be used as an alternative for L-cysteine in the feed medium; relative stability in the culture medium [3, 6]: more stable than Compound 2; crystal precipitation on storage, in words ([3]; 58 mM in feed medium, 5° C. in the dark, up to 30 days after the start of storage): no crystal precipitation was observed
3 | Cl.N[C@@H](CS)C(=O)O.O [L-cysteine, L-cysteine hydrochloride monohydrate] |  | Proliferation of cells was observed |  | − | − | +++ | +++ | +++ | − | − | +++ | +++ | +++ |  | − | ++ | +++ | +++ | +++ | +++ | significant precipitation observed from (after the start of storage) ([4]; 5° C. in the dark): 3 days

Source: patent US20230044979A1, “ANIMAL CELL CULTURING METHOD” (AJINOMOTO CO., INC., priority 2020, published 2023)
